Source: patent publication US20230023559A1, “ARYLMETHYLENE HETEROCYCLIC COMPOUNDS AS KV1.3 POTASSIUM SHAKER CHANNEL BLOCKERS” (D. E. Shaw Research, LLC, priority 2019, published 2023)

What was measured:
hERG channel = hERG channel (Homo sapiens, UniProt Q12809); assay: hERG electrophysiology, automated whole-cell patch clamp (Patchliner)
Kv1.3 potassium channel = target: T1, Kv1.3 potassium channel (Homo sapiens, UniProt P22001); assay: Kv1.3 potassium channel blocker activity, automated whole-cell patch clamp (Patchliner); type: cell-based; details: CHO-K1 cells stably expressing Kv1.3; whole cell current inhibition; read-out: Kv1.3_IC50
T1 construct: expressed in transfected cells
T1 sequence (P22001 whole entry): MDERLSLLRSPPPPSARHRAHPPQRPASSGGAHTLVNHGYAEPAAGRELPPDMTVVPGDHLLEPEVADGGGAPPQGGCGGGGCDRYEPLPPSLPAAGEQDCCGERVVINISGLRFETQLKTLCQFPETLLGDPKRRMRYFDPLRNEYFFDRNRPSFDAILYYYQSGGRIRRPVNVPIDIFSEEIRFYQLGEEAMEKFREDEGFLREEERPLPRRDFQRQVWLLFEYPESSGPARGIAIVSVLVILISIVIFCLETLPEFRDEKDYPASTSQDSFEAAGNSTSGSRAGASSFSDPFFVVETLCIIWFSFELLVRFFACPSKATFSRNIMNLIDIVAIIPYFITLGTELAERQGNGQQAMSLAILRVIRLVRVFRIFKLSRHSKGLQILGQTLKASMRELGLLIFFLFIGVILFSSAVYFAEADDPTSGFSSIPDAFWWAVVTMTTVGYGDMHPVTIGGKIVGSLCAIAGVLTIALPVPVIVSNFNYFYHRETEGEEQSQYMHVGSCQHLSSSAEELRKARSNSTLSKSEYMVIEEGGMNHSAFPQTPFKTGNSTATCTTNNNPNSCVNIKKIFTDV
Method in brief: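 Peak-current block was recorded on stable Kv1.3 CHO-K1 cells by automated patch clamp, stepping from a −90 mV holding potential to +40 mV for 100 ms at 0.1 Hz with 10 s breaks between trains. Online P/4 leak subtraction, 10 kHz sampling; compound exposure under 10 s per train.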

Chain of hERG channel (Q12809 whole entry): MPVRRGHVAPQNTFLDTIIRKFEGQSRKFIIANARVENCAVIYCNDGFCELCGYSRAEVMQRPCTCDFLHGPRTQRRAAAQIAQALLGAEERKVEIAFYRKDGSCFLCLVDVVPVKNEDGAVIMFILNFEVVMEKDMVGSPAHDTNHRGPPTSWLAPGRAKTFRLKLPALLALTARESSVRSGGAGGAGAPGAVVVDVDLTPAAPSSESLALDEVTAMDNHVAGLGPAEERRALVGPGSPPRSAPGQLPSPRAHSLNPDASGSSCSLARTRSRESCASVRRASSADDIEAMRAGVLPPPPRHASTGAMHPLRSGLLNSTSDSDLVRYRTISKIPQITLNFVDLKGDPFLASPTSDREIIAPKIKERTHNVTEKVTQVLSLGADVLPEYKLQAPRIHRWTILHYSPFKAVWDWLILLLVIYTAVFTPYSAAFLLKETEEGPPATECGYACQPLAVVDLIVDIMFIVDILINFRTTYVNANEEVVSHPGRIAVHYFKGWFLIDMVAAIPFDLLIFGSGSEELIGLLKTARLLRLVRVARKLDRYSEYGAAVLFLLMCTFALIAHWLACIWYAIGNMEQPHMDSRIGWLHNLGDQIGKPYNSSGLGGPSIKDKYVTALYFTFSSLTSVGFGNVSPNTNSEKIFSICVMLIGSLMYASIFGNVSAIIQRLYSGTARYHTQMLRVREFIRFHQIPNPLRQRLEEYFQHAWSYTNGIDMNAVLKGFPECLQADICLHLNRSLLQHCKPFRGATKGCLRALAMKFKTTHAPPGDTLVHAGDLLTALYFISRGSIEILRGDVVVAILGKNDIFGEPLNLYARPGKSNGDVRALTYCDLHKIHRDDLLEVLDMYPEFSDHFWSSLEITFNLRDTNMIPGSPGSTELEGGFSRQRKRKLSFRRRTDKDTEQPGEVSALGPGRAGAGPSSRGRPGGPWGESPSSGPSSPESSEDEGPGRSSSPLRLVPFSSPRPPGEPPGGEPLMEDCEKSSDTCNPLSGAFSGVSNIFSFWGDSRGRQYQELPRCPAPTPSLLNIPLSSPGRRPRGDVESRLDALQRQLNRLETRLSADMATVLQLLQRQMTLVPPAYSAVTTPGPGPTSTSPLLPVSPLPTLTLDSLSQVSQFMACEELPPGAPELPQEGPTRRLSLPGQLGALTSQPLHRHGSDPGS

IC50 (Kv1.3 potassium channel) [µM] | SMILES | IC50 (hERG channel) [µM]
< 0.5 | N[C@@H](c1cc(Cl)c(Cl)cc1O)C1CCN(C(=O)CC2CNC2)CC1 [Compound 103, (R)-1-(4-(amino(4,5-dichloro-2-hydroxyphenyl)methyl)piperidin-1-yl)-2-(azetidin-3-yl)ethanone trifluoroacetic acid] | > 30
< 0.5 | NC(c1cc(Cl)c(Cl)cc1O)C1CCN(C(=O)C2COC2)CC1 (centres unmarked) [Compound 67, 2-[amino[1-(oxetane-3-carbonyl)piperidin-4-yl]methyl]-4,5-dichlorophenol] | < 30
< 0.5 | C[C@@H](O)[C@@H](O)C(=O)N1CCC([C@@H](N)c2cc(Cl)c(Cl)cc2O)CC1 (mixture of isomers) [Compound 281, 1-[4-[(R)-amino(4,5-dichloro-2-hydroxyphenyl)methyl]piperidin-1-yl]-(2R,3R)-rel-dihydroxybutan-1-one trifluoro-acetic acid] | > 30
< 0.5 | Cn1cc(C(=O)N2CCC([C@@H](N)c3cc(Cl)c(Cl)cc3O)CC2)ccc1=O [Compound 232, 5-[4-[(R)-amino(4,5-dichloro-2-hydroxyphenyl)methyl]piperidine-1-carbonyl]-1-methylpyridin-2-one] | > 30
< 0.5 | N[C@@H](c1cc(Cl)c(Cl)cc1O)C1CCN(C(=O)c2ccc(=O)[nH]c2)CC1 [Compound 305, 5-[4-[(R)-amino(4,5-dichloro-2-hydroxyphenyl)methyl]piperidine-1-carbonyl]-1,2-dihydropyridin-2-one trifluoroacetic acid] | > 30
< 0.5 | NC(=O)N1CCC(C(N)c2cc(Cl)c(Cl)cc2O)CC1 (centres unmarked) [Compound 53, 4-[amino(4,5-dichloro-2-hydroxyphenyl)methyl]piperidine-1-carboxamide] | > 30
< 0.5 | NC(=O)C(=O)N1CCC([C@@H](N)c2cc(Cl)c(Cl)cc2O)CC1 [Compound 206, 2-[4-[(R)-amino(4,5-dichloro-2-hydroxyphenyl)methyl]piperidin-1-yl]-2-oxoacetamide trifluoroacetic acid] | > 30
< 10 | N[C@@H](c1cc(Cl)c(Cl)cc1O)C1CCN(C(=O)c2c[nH]c3ccccc23)CC1 [Compound 204, (R)-(4-(amino(4,5-dichloro-2-hydroxyphenyl)methyl)piperidin-1-yl)(1H-indol-3-yl)methanone trifluoroacetic acid] | < 30
< 0.5 | Cc1[nH]ncc1C(=O)N1CCC([C@@H](N)c2cc(Cl)c(Cl)cc2O)CC1 [Compound 153, 2-[(R)-amino[1-(3-methyl-1H-pyrazole-4-carbonyl)piperidin-4-yl]methyl]-4,5-dichlorophenol trifluoroacetic acid] | > 30
< 0.5 | N[C@@H](c1cc(Cl)c(Cl)cc1O)C1CCN(C(=O)C2CNC2)CC1 [Compound 83, 2-[(R)-amino[1-(azetidine-3-carbonyl)piperidin-4-yl]methyl]-4,5-dichlorophenol Trifluoroacetic Acid] | > 30
< 0.5 | C[C@H](O)[C@@H](N)C(=O)N1CCC([C@@H](N)c2cc(Cl)c(Cl)cc2O)CC1 [Compound 173, (2R,3S)-2-amino-1-(4-((R)-amino(4,5-dichloro-2-hydroxyphenyl)methyl)piperidin-1-yl)-3-hydroxybutan-1-one bis (trifluoroacetic acid)] | > 30
< 0.5 | N[C@@H](CO)C(=O)N1CCC([C@@H](N)c2cc(Cl)c(Cl)cc2O)CC1 [Compound 167, (2S)-2-amino-1-[4-[(R)-amino(4,5-dichloro-2-hydroxyphenyl)methyl]piperidin-1-yl]-3-hydroxypropan-1-one] | > 30
< 0.5 | N[C@@H](c1cc(Cl)c(Cl)cc1O)C1CCN(C(=O)CO)CC1 [Compound 135, 1-[4-[(R)-amino(4,5-dichloro-2-hydroxyphenyl)methyl]piperidin-1-yl]-2-hydroxyethan-1-one trifluoroacetic acid] | > 30
< 10 | CC(C)(O)CC(=O)N1CCC(C(N)c2cc(Cl)c(Cl)cc2O)CC1 (centres unmarked) [Compound 49, 1-(4-(amino(4,5-dichloro-2-hydroxyphenyl)methyl)piperidin-1-yl)-3-hydroxyl-3-methylbutan-1-one trifluoroacetic acid] | < 30
< 0.5 | CN1CC[C@@H](C(=O)N2CCC([C@@H](N)c3cc(Cl)c(Cl)cc3O)CC2)C1 [Compound 104, 2-[(R)-amino([1-[(3R)-1-methylpyrrolidine-3-carbonyl]piperidin-4-yl])methyl]-4,5-dichlorophenol] | > 30
< 0.5 | N[C@@H](c1cc(Cl)c(Cl)cc1O)C1CCN(C(=O)C2CC(O)(CO)C2)CC1 (stereo partly drawn) [Compound 213, 2-[(R)-amino([1-[3-hydroxy-3-(hydroxymethyl)cyclobutane-carbonyl]piperidin-4-yl])methyl]-4,5-dichlorophenol trifluoroacetic acid] | > 30
< 0.5 | N[C@@H](c1cc(Cl)c(Cl)cc1O)C1CCN(C(=O)[C@H]2COCCN2)CC1 [Compound 194, (4-((R)-amino(4,5-dichloro-2-hydroxyphenyl)methyl)piperidin-1-yl)((R)-morpholin-3-yl)methanone] | > 30
< 0.5 | N[C@@H](c1cc(Cl)c(Cl)cc1O)C1CCN(C(=O)[C@@H]2CNC(=O)C2)CC1 (single isomer, unassigned; isomer 1) [Compound 296] | > 30
< 0.5 | N[C@@H](c1cc(Cl)c(Cl)cc1O)C1CCN(C(=O)C2CNC(=O)CO2)CC1 (stereo partly drawn) [Compound 231, 6-[4-[(R)-amino(4,5-dichloro-2-hydroxyphenyl)methyl]piperidine-1-carbonyl]morpholin-3-one] | > 30
< 10 | CC(=O)N1CCC([C@H](N)c2cc(Cl)c(Cl)cc2O)CC1 (single isomer, unassigned) [Compound 19] | < 30

The next lines start with the compound.

SMILES | IC50 (Kv1.3 potassium channel) [µM] | IC50 (hERG channel) [µM]
N[C@@H](c1cc(Cl)c(Cl)cc1O)C1CCN(C(=O)N2CC(O)(CO)C2)CC1 [Compound 220, 1-[4-[(R)-amino(4,5-dichloro-2-hydroxyphenyl)methyl]piperidine-1-carbonyl]-3-(hydroxymethyl)azetidin-3-ol] | < 0.5 | > 30
Oc1cc(Cl)c(Cl)cc1[C@H](O)C1CCNCC1 (single isomer, unassigned) [Compound 7] | < 10 | > 30
Cc1cc(O)c([C@H](N)C2CCN(C(=O)c3ccc4nncn4c3)CC2)cc1Cl [Compound 242, (R)-[1,2,4]triazolo[4,3-a]pyridin-6-yl(4-(amino(5-chloro-2-hydroxy-4-methylphenyl)methyl)piperidin-1-yl)methanone trifluoroacetic acid] | < 0.5 | > 30
N[C@@H](c1cc(Cl)c(Cl)cc1O)C1CCN(C(=O)C23CC(O)(C2)C3)CC1 [Compound 160, 3-[4-[(R)-amino(4,5-dichloro-2-hydroxyphenyl)methyl]piperidine-1-carbonyl]bicyclo [1.1.1]pentan-1-ol trifluoroacetic acid] | < 10 | < 30
CC(=O)NC(c1cc(Cl)c(Cl)cc1O)C1CCNCC1 (centres unmarked) [Compound 11, N-[(4,5-dichloro-2-hydroxyphenyl)(piperidin-4-yl)methyl]acetamide] | < 10 | > 30
N[C@@H](c1cc(Cl)c(Br)cc1O)C1CCN(C(=O)[C@H](O)CO)CC1 [Compound 317, (2R)-1-[4-[(R)-amino(4-bromo-5-chloro-2-hydroxyphenyl)methyl]piperidin-1-yl]-2,3-dihydroxypropan-1-one Trifluoroacetic Acid] | < 0.5 | > 30
O=C([C@@H]1CCNC1)N1CCC([C@H](O)c2cc(Cl)c(Cl)cc2O)CC1 (single isomer, unassigned) [Compound 115] | < 0.5 | > 30
N[C@@H](c1cc(Cl)c(CF)cc1O)C1CCN(C(=O)[C@H](O)CO)CC1 [Compound 226, (2R)-1-[4-[(R)-amino[5-chloro-4-(fluoromethyl)-2-hydroxyphenyl]methyl]piperidin-1-yl]-2,3-dihydroxypropan-1-one Trifluoroacetic Acid] | < 0.5 | > 30
N[C@@H](c1cc(Cl)c(Cl)cc1O)C1CCN(S(=O)(=O)C2CNC2)CC1 [Compound 107, 2-[(R)-amino[1-(azetidine-3-sulfonyl)piperidin-4-yl]methyl]-4,5-dichlorophenol] | < 0.5 | > 30
Cc1cc(O)c([C@H](N)C2CCN(C(=O)c3ccc(=O)n(C)c3)CC2)cc1Cl [Compound 239, 5-[4-[(R)-amino (5-chloro-2-hydroxy-4-methylphenyl)methyl]piperidine-1-carbonyl]-1-methylpyridin-2(1H)-one trifluoroacetic acid] | < 0.5 | > 30
Cc1cc(O)c([C@H](N)C2CCN(C(=O)[C@H](O)CO)CC2)cc1Cl [Compound 190, (2R)-1-[4-[(R)-amino(5-chloro-2-hydroxy-4-methylphenyl)methyl]piperidin-1-yl]-2,3-dihydroxypropan-1-one Trifluoroacetic Acid] | < 0.5 | > 30
N[C@@H](c1cc(Cl)c(Cl)cc1O)C1CCN(C(=O)[C@@H]2CC[C@H](O)C2)CC1 (single isomer, unassigned; isomer 2) [Compound 179] | < 0.5 | < 30
Cc1cc(O)c([C@H](N)C2CCN(S(=O)(=O)C3CCNC3)CC2)cc1Cl (stereo partly drawn) [Compound 236, 2-[(R)-amino[1-(pyrrolidine-3-sulfonyl)piperidin-4-yl]methyl]-4-chloro-5-methylphenol Trifluoroacetic Acid] | < 0.5 | > 30
CC(=O)N[C@H](c1cc(Cl)c(Cl)cc1O)C1CCNCC1 (single isomer, unassigned) [Compound 10] | < 10 | > 30
